Results as given in ChEMBL document CHEMBL5038591, “Identification of a Novel TAR RNA-Binding Protein 2 Modulator with Potential Therapeutic Activity against Hepatocellular Carcinoma” (J Med Chem, 2021).
Activity calls are given as the source filed them. No cut-off for these calls is given here.

Legend:
SK-HEP1 [1] = assay: Induction of cell cycle arrest in human SK-HEP1 cells assessed as G1 phase accumulation at 20 uM incubated for 24 hrs by propidium iodide staining based flow cytometry analysis (reference value: 48.61%); assay type: functional
Mus musculus = assay: Downregulation of KIF14 expression in mouse liver at 40 mg/kg measured after 30 days by immunohistochemical staining analysis; assay type: functional, organism-based; details: time 30.0 day
SK-HEP1 [2] = assay: Antiproliferative activity against human SK-HEP1 cells assessed as decrease in miR-30a-5p level at 20 uM by qRT-PCR analysis; assay type: functional, cell-based
SK-HEP1 [3] = assay: Antiproliferative activity against human SK-HEP1 cells incubated for 24 hrs by alamar blue assay; assay type: functional, cell-based; details: SK-HEP1, 24 h
MHCC97 [4] = assay: Antiproliferative activity against human MHCC97 cells incubated for 24 hrs by alamar blue assay; details: MHCC97, 24 h
MDA-MB-231 [5] = assay: Antiproliferative activity against human MDA-MB-231 cells incubated for 24 hrs by alamar blue assay; details: MDA-MB-231, 24 h
SK-HEP1 [6] = assay: Inhibition of colony formation in human SK-HEP1 cells at 10 to 50 uM incubated for 14 days by crystal violet staining based assay; assay type: functional, cell-based; details: dose 10-50 µM, time 14.0 day
MDA-MB-231 [7] = assay: Inhibition of colony formation in human MDA-MB-231 cells at 30 uM incubated for 14 days by crystal violet staining based assay; assay type: functional, cell-based; details: time 14.0 day
SK-HEP1 [8] = assay: Induction of cell cycle arrest in human SK-HEP1 cells assessed as G2 phase accumulation at 20 uM incubated for 24 hrs by propidium iodide staining based flow cytometry analysis (reference value: 24.12%); assay type: functional
SK-HEP1 [9] = assay: Induction of cell cycle arrest in human SK-HEP1 cells assessed as S phase accumulation at 20 uM incubated for 24 hrs by propidium iodide staining based flow cytometry analysis (reference value: 26.72%); assay type: functional
SK-HEP1 [10] = assay: Induction of apoptosis in human SK-HEP1 cells at 30 uM incubated for 24 hrs by Annexin V-FITC/PI staining based flow cytometry; assay type: functional, cell-based
SK-HEP1 [11] = assay: Inhibition of epithelial-mesenchymal transition in human SK-HEP1 cells assessed as change in E-cadherin expression at 10 to 50 uM incubated for 24 hrs by Western blot analysis; assay type: functional, cell-based; details: dose 10-50 µM
SK-HEP1 [12] = assay: Inhibition of MEK phosphorylation in human SK-HEP1 cells at 30 uM by Western blot analysis; assay type: cell-based
[13] = target: MAP kinase p38 (Homo sapiens) (UniProt O15264+Q15759+Q16539+P53778); assay: Inhibition of p38 phosphorylation in human SK-HEP1 cells at 30 uM by Western blot analysis; assay type: cell-based
[14] = target: T1, Signal transducer and activator of transcription 1-alpha/beta (Homo sapiens) (UniProt P42224); assay: Inhibition of STAT1 phosphorylation in human SK-HEP1 cells at 30 uM by Western blot analysis; assay type: cell-based
T1 sequence (whole entry): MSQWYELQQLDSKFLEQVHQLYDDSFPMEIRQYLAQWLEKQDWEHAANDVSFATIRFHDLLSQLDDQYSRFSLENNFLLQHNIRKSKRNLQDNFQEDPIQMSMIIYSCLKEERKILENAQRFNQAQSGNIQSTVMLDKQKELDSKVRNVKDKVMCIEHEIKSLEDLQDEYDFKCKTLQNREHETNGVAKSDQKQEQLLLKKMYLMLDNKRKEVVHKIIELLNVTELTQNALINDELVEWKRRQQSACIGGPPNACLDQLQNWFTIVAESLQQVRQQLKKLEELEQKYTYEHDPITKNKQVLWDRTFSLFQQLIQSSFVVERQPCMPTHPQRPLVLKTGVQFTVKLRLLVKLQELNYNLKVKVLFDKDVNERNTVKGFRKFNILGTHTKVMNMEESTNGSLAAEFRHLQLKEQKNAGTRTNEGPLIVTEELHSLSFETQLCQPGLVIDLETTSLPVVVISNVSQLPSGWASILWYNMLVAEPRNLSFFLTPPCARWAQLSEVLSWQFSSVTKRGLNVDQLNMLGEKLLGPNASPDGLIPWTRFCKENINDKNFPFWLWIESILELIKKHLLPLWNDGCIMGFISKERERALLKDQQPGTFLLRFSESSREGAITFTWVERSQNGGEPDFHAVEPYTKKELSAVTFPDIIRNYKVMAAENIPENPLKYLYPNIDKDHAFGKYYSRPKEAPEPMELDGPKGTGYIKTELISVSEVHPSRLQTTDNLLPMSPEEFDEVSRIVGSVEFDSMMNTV

[15] = target: T2, Inhibitor of nuclear factor kappa-B kinase subunit beta (Homo sapiens) (UniProt O14920); assay: Inhibition of IkappaB phosphorylation in human SK-HEP1 cells at 30 uM by Western blot analysis; assay type: cell-based
T2 sequence (whole entry): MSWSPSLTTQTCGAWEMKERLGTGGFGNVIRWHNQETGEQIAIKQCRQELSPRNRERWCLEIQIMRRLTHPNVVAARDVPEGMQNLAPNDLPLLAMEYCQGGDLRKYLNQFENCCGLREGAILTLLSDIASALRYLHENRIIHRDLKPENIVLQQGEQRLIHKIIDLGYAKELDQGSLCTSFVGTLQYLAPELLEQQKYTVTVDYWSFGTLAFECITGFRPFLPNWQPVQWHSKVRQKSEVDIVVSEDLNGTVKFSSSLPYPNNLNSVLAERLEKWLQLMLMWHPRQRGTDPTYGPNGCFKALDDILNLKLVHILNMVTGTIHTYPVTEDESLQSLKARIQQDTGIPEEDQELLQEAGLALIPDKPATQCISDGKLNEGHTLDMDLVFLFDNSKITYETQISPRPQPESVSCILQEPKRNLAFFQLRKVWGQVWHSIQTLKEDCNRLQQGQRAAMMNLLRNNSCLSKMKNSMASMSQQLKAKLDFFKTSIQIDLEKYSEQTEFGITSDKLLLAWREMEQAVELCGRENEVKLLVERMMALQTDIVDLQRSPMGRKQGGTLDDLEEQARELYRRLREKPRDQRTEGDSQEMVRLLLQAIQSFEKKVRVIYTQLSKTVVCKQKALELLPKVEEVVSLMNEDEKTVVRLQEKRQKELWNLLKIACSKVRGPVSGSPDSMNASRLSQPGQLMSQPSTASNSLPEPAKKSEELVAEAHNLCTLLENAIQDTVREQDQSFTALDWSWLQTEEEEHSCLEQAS

Huh-7 = assay: Antiproliferative activity against human Huh-7 cells at 25 uM incubated for 24 hrs by alamar blue assay; assay type: functional, cell-based
MDA-MB-231 [16] = assay: Antiproliferative activity against human MDA-MB-231 cells at 25 uM incubated for 24 hrs by alamar blue assay; assay type: functional, cell-based
MHCC97 [17] = assay: Antitumor activity against human MHCC97 cells xenografted in SCID mouse assessed as decrease in tumor size at 20 mg/kg, ip administered once every 3 days and measured after 10 days; assay type: functional, organism-based; details: time 10.0 day
MHCC97 [18] = assay: Antitumor activity against human MHCC97 cells xenografted in SCID mouse assessed as decrease in tumor size at 40 mg/kg, ip administered once every 3 days and measured after 10 days; assay type: functional, organism-based; details: time 10.0 day
SK-HEP1 [19] = assay: Effect on Dicer protein expression in human SK-HEP1 cells at 30 uM after 24 hrs by immunoblot analysis; assay type: functional, cell-based

- IC50 (SK-HEP1 [3]): 20.6 µM
- IC50 (MDA-MB-231 [5]): 56.6 µM
- inhibition [13]: inactive
- inhibition [14]: inactive
- inhibition [15]: Active
Compound: COc1cc2c(c(O)c1OC)-c1c(cc3c(c1OC)OCO3)C[C@H](C)[C@H](C)C2
- Activity (SK-HEP1 [1]): 57.4%
- Activity (Mus musculus): Active
- Activity (SK-HEP1 [2]): inactive
- IC50 (MHCC97 [4]): 24.8 µM
- inhibition (SK-HEP1 [6]): Active
- inhibition (MDA-MB-231 [7]): Active
- Activity (SK-HEP1 [8]): 19.68%
- Activity (SK-HEP1 [9]): 22.3%
- Activity (SK-HEP1 [10]): inactive
- inhibition (SK-HEP1 [11]): inactive
- inhibition (SK-HEP1 [12]): Active
- Activity (Huh-7): Active
- Activity (MDA-MB-231 [16]): inactive
- Activity (MHCC97 [17]): Active
- Activity (MHCC97 [18]): Active
- Activity (SK-HEP1 [19]): inactive
